Experimental data reported in publication PMC2992884 (Cell metabolism, 2010).

Target: T1, ACS-3 (Caenorhabditis elegans, UniProt O44560)
T1 sequence (O44560 1-653): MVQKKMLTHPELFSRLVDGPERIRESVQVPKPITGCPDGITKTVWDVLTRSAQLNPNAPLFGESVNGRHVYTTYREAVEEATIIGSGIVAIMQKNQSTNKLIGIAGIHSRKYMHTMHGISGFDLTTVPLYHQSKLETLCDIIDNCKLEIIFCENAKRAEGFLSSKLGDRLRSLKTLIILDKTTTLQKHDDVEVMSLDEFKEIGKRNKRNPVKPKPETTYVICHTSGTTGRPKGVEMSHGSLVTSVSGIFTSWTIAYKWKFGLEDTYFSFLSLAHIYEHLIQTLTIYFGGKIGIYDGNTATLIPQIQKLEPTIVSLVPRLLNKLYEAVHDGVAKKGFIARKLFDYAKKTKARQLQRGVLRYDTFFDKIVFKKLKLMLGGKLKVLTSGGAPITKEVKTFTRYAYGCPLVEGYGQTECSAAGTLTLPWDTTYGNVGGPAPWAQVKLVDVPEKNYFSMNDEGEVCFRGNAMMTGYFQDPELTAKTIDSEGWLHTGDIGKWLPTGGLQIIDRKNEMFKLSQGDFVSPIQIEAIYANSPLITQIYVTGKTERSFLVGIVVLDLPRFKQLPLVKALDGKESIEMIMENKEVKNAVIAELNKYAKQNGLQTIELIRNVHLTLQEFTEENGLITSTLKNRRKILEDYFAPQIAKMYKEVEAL
Test: acyl-CoA oxidase/catalase coupled colorimetric assay, […] nm
Assay type: biochemical
Conditions: with free long-chain fatty acid (18-carbon preferred)

CC(C)(COP(=O)(O)OP(=O)(O)OC[C@H]1O[C@@H](n2cnc3c(N)ncnc32)[C@H](O)[C@@H]1OP(=O)(O)O)[C@@H](O)C(=O)NCCC(=O)NCCS [CoA]
acyl-CoA oxidase/catalase coupled colorimetric assay, 550 nm: ACS activity generates acyl-CoA species from free fatty acid and CoA
